Assay results published in patent publication US20110217300A1, “Quinazolinone Compounds and Methods of Use Thereof” (priority 2007, published 2011).
Read-outs that look alike come from different tables or passages of the source.

How the values were obtained:
A549 = test: MTS cell viability assay; assay type: cell-based; settings: Homo sapiens, A549 non small cell lung, 72 hours, read-out: MTS NCI A549 GI50
Protocol: Two human cancer cell lines were assayed (see, Table 1). Cells were maintained at 37° C. and 5% CO2 in DMEM media (4.5 g/L glucose) supplemented with 10% heat-inactivated FBS, 10 mM L-glutamine, and 10 mM Hepes pH 7.5. Briefly, cells were seeded in 96-well plates as set forth in Table 1 and incubated for 16-24 hours. Candidate compounds were serially diluted in DMSO, further diluted in cell culture media, and then added to cells (final DMSO concentration of 0.33%). Cells were incubated in the presence of candidate compound for 72 hours. […] The Compound Numbers in Table 2 correspond to the numbers listed parenthetically in the Example titles.

NCI-H460 = test: MTS cell viability assay; assay type: cell-based, human; settings: Homo sapiens, NCI-H460, 72 h
Protocol: Cell viability was determined by measuring the activity of dehydrogenase enzymes in metabolically active cells using a tetrazolium compound, MTS. The assay was performed as described in Promega Technical Bulletin No. 169 (CellTiter 96 Aqueous Non-Radioactive Cell Proliferation Assay). Two human cancer cell lines were assayed (see, Table 1). Cells were maintained at 37° C. and 5% CO2 in DMEM media (4.5 g/L glucose) supplemented with 10% heat-inactivated FBS, 10 mM L-glutamine, and 10 mM Hepes pH 7.5. Briefly, cells were seeded in 96-well plates as set forth in Table 1 and incubated for 16-24 hours. Candidate compounds were serially diluted in DMSO, further diluted in cell culture media, and then added to cells (final DMSO concentration of 0.33%). Cells were incubated in the presence of candidate compound for 72 hours. MTS stock solution (MTS 2 gm/L, PMS […] in PBS) was added to the cells (final concentration MTS […] and PMS 7.67 mg/L) and incubated for 4 hours. SDS was added to a final concentration of 1.4% and absorbance at 490 nm was measured within two hours using a plate reader. […] GI50 values were given in Table 2 for the compounds listed. The Compound Numbers in Table 2 correspond to the numbers listed parenthetically in the Example titles. Where multiple measurements were made by different technicians, both values are given.
Cell viability was determined for N-(3-amino-propyl)-3-chloro-N—[(R)-1-(7-chloro-4-oxo-3-phenylamino-3,4-dihydro-quinazolin-2-yl)-but-3-ynyl]-2-fluoro-benzamide (compound I of Table 2). The cell viability assay of Example 105 was used. GI50 was determined using a variety of cell lines. Cells were plated at 100-5000 cells per well. At least 2 replicates were performed. Where multiple measurements were made by different technicians, both values are given.

HsEg5 = molecular target: T1, HsEg5 (Homo sapiens, UniProt P52732); test: Fluorescence detection of HsEg5 ATPase activity (ADP Quest, automated); assay type: biochemical
T1 sequence (P52732 18-359 limits assumed): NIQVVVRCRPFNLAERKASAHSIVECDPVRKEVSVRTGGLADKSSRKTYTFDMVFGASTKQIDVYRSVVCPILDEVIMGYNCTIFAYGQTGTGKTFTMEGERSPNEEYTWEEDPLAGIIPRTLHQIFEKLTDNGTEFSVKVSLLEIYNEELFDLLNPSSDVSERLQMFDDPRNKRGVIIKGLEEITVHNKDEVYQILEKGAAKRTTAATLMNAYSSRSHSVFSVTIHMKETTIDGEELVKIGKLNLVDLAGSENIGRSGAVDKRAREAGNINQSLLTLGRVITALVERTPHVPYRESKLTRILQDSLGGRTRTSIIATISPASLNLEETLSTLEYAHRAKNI
Protocol: Purified HsEg5 motor fragment was activated by mixture with preformed MT polymer (Cytoskeleton, Denver, Colo.) at room temperature for 20 minutes. MT activated ATPase activity was measured using ADP Quest (DiscoverX, Fremont, Calif.) in which a coupled-enzyme assay can translate accumulation of ADP into detectable resorufin signal (FIG. 1A). Fluorescence was measured at λEx=535 nm and λEm=590 nm on a Wallac Victor 2 plate reader (Perkin-Elmer Life Sciences, Boston, Mass.). Reagent A and B from ADP Quest kit were aliquoted and frozen in −20° C. before use. A standard curve was determined using the provided ADP reagent in the reaction buffer that consisted of 50 mM Pipes (pH7.0), 5.0 mM MgCl2, 20 μM paclitaxel and […]. The same buffer was used for Km determination with HsEg5 concentration of 10 nM.
For inhibitor screening, 4 μL of compounds were incubated with 10 μL of MT-activated HsEg5 such that the final concentrations for compound range from 100 μM to 5 nM (1 to 3 serial dilutions, final concentration) and final concentration for HsEg5 is 10 nM. The mixture was incubated at room temperature for 10 minutes with mild shaking. The screening assay contained 0.3% DMSO in all reaction wells. We used wells containing only DMSO as negative controls and wells without ATP as background. Addition of 6 μL ATP (final concentration of 20 μM) initiated the ATP hydrolysis reaction. The 20 μL-reaction was allowed to proceed at room temperature for 10 minutes before addition of 10 μL of reagent A and 20 μL of reagent B. After 20-minute development at room temperature, the fluorescence was measured and data analysis was performed using GraphPad Prism version 3.0 (GraphPad Software, San Diego, Calif.)
For the purpose of high-throughput screening, we automated the fluorescence assay using a Sciclone ALH3000 (Caliper Life Sciences, Hopkinton, Mass.) and Multidrop 384 (Thermo Electron Corp, Waltham, Mass.). First, compound dilution plates for screening (at 10 μM or 1 μM) and ICso determination (10 data points from 100 μM to 5 nM) were made in Corning polypropylene V-bottom 96-well plates. In both cases, the 1st and 7th column contained background (No ATP addition) and negative control (DMSO only). For screening compounds at 10 μM or 1 μM, […] of each compound at 50 μM or 5 μM were used in a 20 μL assay reaction. For IC50 determination, the mother compound plate contained 24 μL of tested compound at stock concentration of 30 mM. 6 μL of each test compound in 30 mM was added to each well in the column 2 and followed by 1:3 serial dilutions in DMSO with the Sciclone ALH3000. 234 μL of assay buffer was then added using a Multidrop 384. Then 4 μL of diluted compounds was used in 20 μL-reaction. The final concentration was a 1:300 dilution of the original stock. Second, a reagent source plate was prepared with three rows designated to MT-activated HsEg5, Reagent A and Reagent B respectively. MTs were diluted with assay buffer and polymerized at room temperature for 10 minutes. Just before use, HsEg5 protein was thawed on ice and activated by addition of MT polymers at room temperature for 20 minutes. HsEg5/MT was then added to Row A of the reagent source plate. The final assay concentration was 10 nM HsEg5 and 500 nM MTs. Reagent A and B were stored at −20° C. and thawed at room temperature followed by transferring to rows B & C of the reagent source plate. Third, ATP substrate plate was prepared by transferring 80 μM ATP solution to each well of a V-shape 96-well plate except the wells in the first row where assay buffer was added instead to have no-ATP blanks. The final concentration for ATP in the assay was 20 μM.
The assay was programmed on Sciclone ALH3000 with the following procedures: 1) Addition of 4 μL compounds to the assay plate, followed by addition of 10 μL of MT-activated HsEg5. […]

[1] = read-out: MTS NCI H460 GI50, NCI-H460 non small cell lung, 72 hours

| SMILES | GI50 (A549) [µM] | GI50 (NCI-H460; read-out: MTS NCI H460 GI50) [µM] | IC50 (HsEg5) [µM] | GI50 (A549; A549, 72 h) [µM] | GI50 (NCI-H460; [1]) [µM] |
| --- | --- | --- | --- | --- | --- |
| CCC(c1nc2cc(Cl)ccc2c(=O)n1Nc1ccccc1)N(CCCN)C(=O)c1ccc(Br)cc1 (stereo not shown) [Compound 2, N-(3-Aminopropyl)-N-[1-(3-anilino-7-chloro-4-oxo-3,4-dihydroquinazolin-2-yl)propyl]-4-bromobenzamide] | 2.37 | 1.75 | 0.645 |  |  |
| CCC(c1nc2cc(Cl)ccc2c(=O)n1Nc1ccccc1)N(CCCN)C(=O)c1ccc(C)cc1 (stereo not shown) [Compound 3, N-(3-Aminopropyl)-N-[1-(3-anilino-7-chloro-4-oxo-3,4-dihydroquinazolin-2-yl)propyl]-4-methylbenzamide] |  |  | 0.702 | 2.3 | 1.19 |
| CCC(c1nc2cc(Cl)ccc2c(=O)n1Nc1ccccc1)N(CCCN)C(=O)c1ccc(Cl)cc1 (stereo not shown) [Compound 4, N-(3-Aminopropyl)-N-[1-(3-anilino-7-chloro-4-oxo-3,4-dihydroquinazolin-2-yl)propyl]-4-chlorobenzamide] | 2.4 | 1.14 | 0.72 |  |  |
| CCC(c1nc2cc(Cl)ccc2c(=O)n1Nc1ccccc1)N(CCCN)C(=O)c1ccc([N+](=O)[O-])cc1 (stereo not shown) [Compound 5, N-(3-Aminopropyl)-N-[1-(3-anilino-7-chloro-4-oxo-3,4-dihydroquinazolin-2-yl)propyl]-4-nitrobenzamide] | 4.4 | 2.39 | 1.05 |  |  |
| C#CC[C@H](c1nc2cc(Cl)ccc2c(=O)n1Nc1ccccc1)N(CCCN)S(=O)(=O)c1ccc(C)cc1 [Compound 30, N-(3-amino-propyl)-N—[(R)-1-(7-chloro-4-oxo-3-phenylamino-3,4-dihydro-quinazolin-2-yl)-but-3-ynyl]-4-methyl-benzenesulfonamide] |  |  |  | 7.1 | 12 |
| CC[C@H](c1nc2cc(Cl)ccc2c(=O)n1Nc1ccccc1)N(CCCN)S(=O)(=O)c1cccc(F)c1 [Compound 31, N-(3-Aminopropyl)-N-[(1R)-1-(3-anilino-7-chloro-4-oxo-3,4-dihydroquinazolin-2-yl)propyl]-3-fluorobenzenesulfonamide] | 10.8 |  | 1.43 |  |  |
| CC[C@H](c1nc2cc(Cl)ccc2c(=O)n1Nc1ccccc1)N(CCCN)S(=O)(=O)c1c(C)nn(C)c1C [Compound 33, N-(3-Aminopropyl)-N-[(1R)-1-(3-anilino-7-chloro-4-oxo-3,4-dihydroquinazolin-2-yl)propyl]-1,3,5-trimethyl-1H-pyrazole-4-sulfonamide] |  | 10.4 | 4.22 |  |  |
| CSCCC(c1nc2cc(Cl)ccc2c(=O)n1Nc1ccccc1)N(CCCN)C(=O)c1cccc(Cl)c1F (stereo not shown) [Compound 38, N-(3-Aminopropyl)-N-[1-(3-anilino-7-chloro-4-oxo-3,4-dihydroquinazolin-2-yl)-3-(methylthio)propyl]-3-chloro-2-fluorobenzamide] |  |  | 4.59 |  | 3.59 |
| Cc1ccc(C(=O)N(CCCN)C(c2nc3cc(Cl)ccc3c(=O)n2Nc2ccccc2)C(C)C)cc1F (stereo not shown) [Compound 46, N-(3-Aminopropyl)-N-[1-(3-anilino-7-chloro-4-oxo-3,4-dihydroquinazolin-2-yl)-2-methylpropyl]-3-fluoro-4-methylbenzamide] |  |  | 0.246 |  | 0.678 |
| CCCCC(c1nc2cc(Cl)ccc2c(=O)n1Nc1ccccc1)N(CCCN)C(=O)c1ccc(C)cc1 (stereo not shown) [Compound 59, N-(3-Aminopropyl)-N-[1-(3-anilino-7-chloro-4-oxo-3,4-dihydroquinazolin-2-yl)pentyl]-4-methylbenzamide] |  | 4.24 | 52.3 |  |  |
| CCC(c1nc2cc(Cl)ccc2c(=O)n1Nc1ccccc1)N(CCN)C(=O)c1ccc(Cl)cc1 (stereo not shown) [Compound 60, N-(2-Aminoethyl)-N-[1-(3-anilino-7-chloro-4-oxo-3,4-dihydroquinazolin-2-yl)propyl]-4-chlorobenzamide] |  | 10 | 3.99 |  |  |
| C#CC[C@H](c1nc2cc(Cl)ccc2c(=O)n1Nc1ccccc1)N(CCCN)Cc1ccc(C)cc1 [Compound 66, 2-{(R)-1-[(3-Amino-propyl)-(4-methyl-benzyl)-amino]-but-3-ynyl}-7-chloro-3-phenylamino-3H-quinazolin-4-one] |  |  |  | 2.35 | 3.2 |
| CC[C@H](c1nc2cc(Cl)ccc2c(=O)n1Nc1ccccc1)N(CCCN)Cc1ccc(C)cc1 [Compound 68, 2-{(R)-1-[(3-Amino-propyl)-(4-methyl-benzyl)-amino]-propyl}-7-chloro-3-phenylamino-3H-quinazolin-4-one] |  |  |  | 3.86 | 2.59 |
| CC[C@H](c1nc2cc(Cl)ccc2c(=O)n1Nc1ccccc1)N(CCCN)Cc1ccc(F)c(C)c1 [Compound 69, 2-{(1R)-1-[(3-Aminopropyl)(4-fluoro-3-methylbenzyl)amino]propyl}-3-anilino-7-chloro-3H-quinazolin-4-one] |  |  |  | 3.9 | 3.77 |
| CC[C@H](c1nc2cc(Cl)ccc2c(=O)n1Nc1ccccc1)N(CCCN)Cc1ccccc1 [Compound 70, 2-{(1R)-1-[(3-aminopropyl)(benzyl)amino]propyl}-3-anilino-7-chloro-3H-quinazolin-4-one] |  |  |  | 6.91 | 4.23 |
